Reference: US11477982B2, “2-amino-5-oxyalkyl-pyrimidine derivatives and their use for controlling undesired plant growth” (Bayer CropScience Aktiengesellschaft, priority 2017, dated 2022)

Experiments:
Type in all cases: in vivo
[1] = system: ABUTH: Abutilon theophrasti; assay: Pre-emergence herbicidal effect; settings: dosage 320 g/ha
How it was run: (§1)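 Compounds applied before emergence onto soil over sown seeds (WP or EC, 0.5% additive, 600 l/ha water); greenhouse culture about 3 weeks, then percent activity judged by eye against untreated plants.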

[2] = system: ALOMY: Alopecurus myosuroides; assay: Pre-emergence herbicidal effect; settings: pre-emergence; dosage 320 g/ha
How it was run: as §1

[3] = system: AMARE: Amaranthus retroflexus; assay: Pre-emergence herbicidal effect; settings: pre-emergence; dosage 320 g/ha
How it was run: as §1

AVEFA: Avena fatua = assay: Pre-emergence herbicidal effect; settings: dosage 320 g/ha
How it was run: as §1

[4] = system: ECHCG: Echinochloa crus-galli; assay: Pre-emergence herbicidal effect; settings: pre-emergence; dosage 320 g/ha
How it was run: as §1

HORMU: Hordeum murinum = assay: Pre-emergence herbicidal effect; settings: pre-emergence; dosage 320 g/ha
How it was run: as §1

LOLRI: Lolium rigidum = assay: Pre-emergence herbicidal effect; settings: dosage 320 g/ha
How it was run: as §1

[5] = system: MATIN: Matricaria inodora; assay: Pre-emergence herbicidal effect; settings: pre-emergence; dosage 320 g/ha
How it was run: as §1

PHBPU: Ipomoea purpurea = assay: Pre-emergence herbicidal effect; settings: dosage 320 g/ha
How it was run: as §1

[6] = system: POLCO: Polygonum convolvulus; assay: Pre-emergence herbicidal effect; settings: dosage 320 g/ha
How it was run: as §1

SETVI: Setaria viridis [7] = assay: Pre-emergence herbicidal effect; settings: pre-emergence; dosage 320 g/ha
How it was run: as §1

STEME: Stellaria media [8] = assay: Pre-emergence herbicidal effect; settings: pre-emergence; dosage 320 g/ha
How it was run: as §1

VERPE: Veronica persica [9] = assay: Pre-emergence herbicidal effect; settings: dosage 320 g/ha
How it was run: as §1

VIOTR: Viola tricolor [10] = assay: Pre-emergence herbicidal effect; settings: dosage 320 g/ha
How it was run: as §1

[11] = system: ABUTH: Abutilon theophrasti; assay: Post-emergence herbicidal effect; settings: dosage 320 g/ha
How it was run: (§2)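 Foliar post-emergence spray on one-leaf-stage plants raised in sandy loam in the greenhouse, using WP or EC formulations with 0.5% additive at a water rate of 600 l/ha; effect judged visually about 3 weeks on, 0% to 100% relative to untreated plants.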

[12] = system: AMARE: Amaranthus retroflexus; assay: Post-emergence herbicidal effect; settings: dosage 320 g/ha
How it was run: as §2

[13] = system: ECHCG: Echinochloa crus-galli; assay: Post-emergence herbicidal effect; settings: dosage 320 g/ha
How it was run: as §2

SETVI: Setaria viridis [14] = assay: Post-emergence herbicidal effect; settings: dosage 320 g/ha
How it was run: as §2

STEME: Stellaria media [15] = assay: Post-emergence herbicidal effect; settings: dosage 320 g/ha
How it was run: as §2

VERPE: Veronica persica [16] = assay: Post-emergence herbicidal effect; settings: dosage 320 g/ha
How it was run: as §2

VIOTR: Viola tricolor [17] = assay: Post-emergence herbicidal effect; settings: dosage 320 g/ha
How it was run: as §2

Row | SMILES | Herbicidal action against ABUTH [1] [%] | Herbicidal action against ALOMY [2] [%] | Herbicidal action against AMARE [3] [%] | Herbicidal action against AVEFA (AVEFA: Avena fatua) [%] | Herbicidal action against ECHCG [4] [%] | Herbicidal action against HORMU (HORMU: Hordeum murinum) [%] | Herbicidal action against LOLRI (LOLRI: Lolium rigidum) [%] | Herbicidal action against MATIN [5] [%] | Herbicidal action against PHBPU (PHBPU: Ipomoea purpurea) [%] | Herbicidal action against POLCO [6] [%] | Herbicidal action against SETVI (SETVI: Setaria viridis [7]) [%] | Herbicidal action against STEME (STEME: Stellaria media [8]) [%] | Herbicidal action against VERPE (VERPE: Veronica persica [9]) [%] | Herbicidal action against VIOTR (VIOTR: Viola tricolor [10]) [%] | Herbicidal action against ABUTH [11] [%] | Herbicidal action against AMARE [12] [%] | Herbicidal action against ECHCG [13] [%] | Herbicidal action against SETVI (SETVI: Setaria viridis [14]) [%] | Herbicidal action against STEME (STEME: Stellaria media [15]) [%] | Herbicidal action against VERPE (VERPE: Veronica persica [16]) [%] | other results
1 | CCC(O)(CC)c1cnc(N[C@H]2c3cc(C)ccc3C[C@@H]2C)nc1 [Example 1.10] | 100 | 100 | 100 | 100 | 100 | 100 | 100 | 100 | 80 | 100 | 100 | 100 | 100 | 100 | 90 | 90 | 100 | 80 | 100 | 90 | Herbicidal action against VIOTR (VIOTR: Viola tricolor [17]): 90%
2 | Cc1ccc2c(c1)[C@H](Nc1ncc(C(C)(O)C(F)(F)F)cn1)[C@@H](C)C2 (stereo partly drawn) [Example 1.11] | 100 | 100 | 100 | 100 | 100 | 100 | 100 | 100 | 80 | 100 | 100 | 100 | 100 | 100 | 90 | 100 | 100 | 100 | 100 | 90 | Herbicidal action against VIOTR (VIOTR: Viola tricolor [17]): 90%
3 | Cc1ccc2c(c1)[C@H](Nc1ncc(C(C)(C)O)c(C)n1)CC2 [Example 1.12] | 100 | 100 | 100 | 100 | 100 | 100 | 100 | 100 | 100 | 100 | 100 | 100 | 100 | 100 | 90 | 90 | 100 | 100 | 100 | 90 | Herbicidal action against VIOTR (VIOTR: Viola tricolor [17]): 80%
4 | CCC(C)(O)c1cnc(N[C@H]2c3cc(C)ccc3C[C@@H]2C)nc1 (stereo partly drawn) [Example 1.14] | 100 | 100 | 100 | 100 | 100 | 100 | 100 | 100 | 100 | 100 | 100 | 100 | 100 | 100 | 90 | 100 | 100 | 90 | 100 | 90 | Herbicidal action against VIOTR (VIOTR: Viola tricolor [17]): 90%
